Experimental data: patent US6613766B1, “Pentaaza-cyclopental[a]naphthalene derivatives as ligands for GABAa α5 receptors” (Merck Sharp & Dohme Ltd., priority 1998, dated 2003)

## Cc1cc(-c2nnc3c4cccnc4c(OCc4ncnn4C)nn23)no1 [Example 4, 3-(5-Methylisoxazol-3-yl)-5-(2-methyl-1,2,4-triazol-3-ylmethyloxy)-1,2,3a,4,6-pentaaza-cyclopenta[a]naphthalene]
  melting point: 255 to 257 °C
